Test results published in patent EP1257261B1, “ANTIVIRAL PHARMACEUTICAL COMPOSITIONS CONTAINING IRON CHELATORS” (Faculteit Geneeskunde Universiteit Utrecht, priority 1999, dated 2001).
Where two headings read alike, the source gives them in different places. Blank lines part the entries; values can stand above or below the compound they belong to.

Experiments:
[1] = test system: HIV-1Ba-L; experiment: Drug combination studies, p24 inhibition in HIV-infected PBL, median-effect / combination index (CalcuSyn); format: cell-based; details: 5 days; for IC50: Human immunodeficiency virus 1, 120 h, read-out: IC50 (p24-antigen inhibition)
Experimental: Three separate experiments were performed substantially as described in the section HIV infection and p24 measurements. Multiply-diluted fixed-ratio combinations of the drugs, or single drugs were added to each incubation point. The IC50 (inhibitory concentration) of each drug was calculated using the computer software program CalcuSyn. The combined-drug effect was evaluated by the median-effect principle and the isobologram method. This method involves the plotting of the dose-effect curve for each drug alone and in combination. The slope of the median-effect plot and the x intercept of the plot were then used for the computerized calculation of a combination index (CI). The CI values were based on the classic isobologram equation and CI values of <1, 1 and >1 indicate synergism (greater than the expected additive effect), additive effects and antagonism (less than the expected additive effect). Fraction affected (fa) was calculated for every drug combination and for each drug alone after p24 measurements in infected PBL incubated for 5 days with the examined compounds (see HIV infection and p24 measurements).
CT < 1, = 1 and > 1 represent synergistic, additive and antagonistic effects, respectively. The subdivision within the synergistic area (CI >0.7, 0.3-0.7 and <0.3 implying moderate synergism, synergism, and strong synergism respectively) is according to Chou and Talalay. The parameters are obtained using the median effect equation of Chou and Talalay and the CalcuSync computer software programme as described in materials and methods.
Peripheral blood lymphocytes (PBL) were infected for 2 hours with HIV-1Ba-L at an MOI of 0.001. The cells were subsequently washed 2 times to remove an excess in virus and subsequently incubated for 5 days with only BLM, only ritonavir or various combinations of the two substances. Virus in the supernatant of the cell cultures was inactivated in a final concentration of 0.05% empigen and the presence of HIV-1 in the inactivated supernatant was measured by determining the p24 antigen with enzyme-linked immunosorbent assay (ELISA). […]

[2] = test system: HIV-1Ba-L; experiment: HIV-1 replication in MDM, p24 ELISA of culture supernatant; format: cell-based; details: 5 days
Source text: (§1) Peripheral Blood Mononuclear Cell (PBMC) fractions were isolated from heparinized blood from HIV-1-, HIV-2- and hepatitis B-seronegative donors (Bloodbank, Utrecht, The Netherlands) by Ficoll-Isopaque gradient separation. Cells were washed twice and were then either subjected to counter-current centrifugal elutriation, or monocytes in the PBMC fraction were allowed to adhere to fibronectin-coated flasks before the PBL fraction was harvested. Monocytes were of >95% purity by criteria of cell morphology on May-Grunwald-Giemsa-stained cytosmears and by non-specific esterase staining using (α-naphthylacetate (Sigma Chemical Co., St. Louis, MO) and PBL >85% purity by May-Grunwald-Giemsa-staining. Viability of both cell types was >95% at the point of experiment initiation as determined by trypan-blue exclusion. Isolated monocytes were cultured in suspension at a concentration of 2 x 10^6 cells/ml in teflon flasks minimizing adherence (Nalgene, Rochester, NY) and allowed to differentiate for 7 days. MDM medium consisted of Dulbecco's modified Eagle's medium supplemented with 10% heat-inactivated human AB serum, negative for anti-HIV antibodies (Bloodbank Utrecht, NL), 10 µg/ml gentamycin (Life Technologies Ltd, Paisley, Scotland), 5 µg/ml ciprofloxacin (Beyer, Leverkusen, Germany), 0.6 mg/ml L-glutamine (Sigma) and 3.4 g/L bicarbonate (Merck, Darmstadt, Germany). Isolated PBL was stimulated to proliferate for 3 days with 4 µg/ml phytohemagglutinin (PHA; Sigma) in RPMI-1640 (Life Technologies Ltd.) medium supplemented with 10% heat inactivated fetal calf serum (Life Technologies Ltd.) and 10 µg/ml gentamycin. After PHA stimulation the PBL were cultured in medium containing 10 U/ml human recombinant IL-2 (Boehringer, Mannheim, Germany). All incubations were carried out in flat-bottomed 96-well plates at 37 °C, 5% CO2 and 95% air.
(§2) Cells were infected for 2 hours with HIV-1Ba-L. Macrophages were infected with a multiplicity of infection (MOI) of 0.005 and lymphocytes with an MOI of 0.001. The cells were then washed twice to remove excess virus and subsequently incubated with either DF (Novartis Pharma, Arnhem, The Netherlands), L1 (from Duchefa Farma B.V., Haarlem, The Netherlands) or BLM (H. Lundbeck A/S, Copenhagen, Denmark) for a period of 5 days. Virus in culture supernatant was inactivated in a final concentration of 0.05% empigen (Calbiochem-Novabiochem Co., La Jolla, CA). The presence of HIV-1 in the inactivated supernatant was monitored by checking for the p24-core antigen by enzyme-linked immunosorbent assay (ELISA).
(§3) For the HIV-1 replication measurements cells were infected for 2 hours with HIV-1Ba-L at an MOI of 0.001; the cells were subsequently washed 2 times and incubated with different compound concentrations. After 5 days supernatant was harvested for p24 ELISA; Virus replication was expressed as % p24 reduction after compound incubations, compared to p24 measured from control HIV-infected cells incubated in the absence of compounds (set at 100% p24). Cytotoxicity was measured by the MTT test and is represented as % viable cells after 5 days compound incubations, compared to viable cells from control HIV-infected cells incubated in the absence of compounds (set at 100% viable cells). Results are the average of 3 experiments in duplicate (statistical analysis using repeated ANOVA and student Newman-Keuls test, *p<0.05). 100% p24 production represents 1.2 ng p24/ml.

[3] = test system: HIV-1Ba-L; experiment: HIV-1 replication in PBL, p24 ELISA of culture supernatant; format: cell-based
Source text: as §1, §2
For the HIV-1 replication measurements cells were infected for 2 hours with HIV-1Ba-L at an MOI of 0.001; the cells were subsequently washed 2 times and incubated with different DF concentrations. After 5 days, supenatant was harvested for p24 ELISA. Virus replication was expressed as % p24 reduction after DF incubations, compared to p24 measured from control HIV-infected cells incubated in the absence of DF (set at 100% p24). Cytotoxicity was measured by the MTT test and is represented as % viable cells after 5 days DF incubations, compared to viable cells from control HIV-infected cells incubated in the absence of DF (set at 100% viable cells). PBL proliferation was measured by overnight ^3H-thymidine incorporation after DF was incubated for 4 days with cells; it is represented as counts per minute (cpm) after DF incubations, compared to cpm from control cells, incubated in the absence of DF. Results are the average of 3 experiments in duplicate (statistical analysis using repeated ANOVA and student Newman-Keuls test, *p<0.05). 100% p24 production represents 19 ng p24/ml
For the HIV-I replication measurements cells were infected for 2 hours with HIV-1Ba-L at an MOI of 0.001; the cells were subsequently washed 2 times and incubated with different L1 concentrations. After 5 days, supernatant was harvested for p24 ELISA. […]

[4] = test system: PBL; experiment: Lymphocyte proliferation, overnight 3H-thymidine incorporation; format: cell-based, human; details: concentrations studied, 4 days incubation then overnight 3H-TdR
Source text: as §1, with “Isolated PBL was stimulated to proliferate for 3 days with 4 µg/ml phytohemagglutinin (PHA; Sigma) in RPMI-1640 (Life Technologies Ltd.) medium supplemented with 10% heat inactivated fetal calf serum (Life Technologies Ltd.) and 10 µg/ml gentamycin. After PHA stimulation the PBL were cultured in medium containing 10 U/ml human recombinant IL-2 (Boehringer, Mannheim, Germany). All incubations were carried out in flat-bottomed 96-well plates at 37 °C, 5% CO2 and 95% air.” left out

[5] = test system: MDM; experiment: Cytotoxicity in MDM, MTT assay; format: cell-based, human; details: 5 days
Experimental: (§4) Peripheral Blood Mononuclear Cell (PBMC) fractions were isolated from heparinized blood from HIV-1-, HIV-2- and hepatitis B-seronegative donors (Bloodbank, Utrecht, The Netherlands) by Ficoll-Isopaque gradient separation. Cells were washed twice and were then either subjected to counter-current centrifugal elutriation, or monocytes in the PBMC fraction were allowed to adhere to fibronectin-coated flasks before the PBL fraction was harvested. […] After PHA stimulation the PBL were cultured in medium containing 10 U/ml human recombinant IL-2 (Boehringer, Mannheim, Germany).
(§5) Possible cytotoxicity of DF, L1 or BLM was monitored by the MTT [3-(4,5 dimethylthiazol-2-yl)-2,5-diphenyltetrazolium bromide] (Sigma) assay.
as §3, with “*p<0.05).” for “*p<0.05). 100% p24 production represents 1.2 ng p24/ml.”

[6] = test system: PBL; experiment: Cytotoxicity in PBL, MTT assay; format: cell-based, human; details: 5 days incubation
Experimental: as §4, §5
(§6) Results are the average of 3 experiments in duplicate (statistical analysis using repeated ANOVA and student Newman-Keuls test, *p<0.05).
as §6, §6

[7] = single drug within the DF-ddI combination experiment
[8] = 300 ng BLM/ml, control 1.2 ng p24/ml
[9] = single drug within the BLM-ritonavir combination experiment

Compound: bleomycin [BLM]
- p24 level in culture supernatant [2, 8]: 0.6 ng p24/ml
- reduction of p24 levels [2, 8]: 50%
- IC50 (p24-antigen inhibition) [1, 9]: 1.9 µg/mL
- reduction of HIV-1 replication (p24) ([3]; 3-300 ng BLM/ml, 5 days, n=3, control 19 ng p24/ml): 20-50%
- p24 level in culture supernatant ([3]; lower end of 3-300 ng BLM/ml range (20% reduction), n=3, control 19 ng p24/ml): 15 ng p24/ml
- p24 level in culture supernatant ([3]; upper end of 3-300 ng BLM/ml range (50% reduction), n=3, control 19 ng p24/ml): 9.5 ng p24/ml
- cellular proliferation (3H-thymidine incorporation) [4]: remained intact
- cytotoxicity (cell viability, MTT) ([5]; concentrations studied): not to affect cell viability
- cytotoxicity (cell viability, MTT) ([6]; concentrations studied): not cytotoxic

Compound: CC(=O)N(O)CCCCCNC(=O)CCC(=O)N(O)CCCCCNC(=O)CCC(=O)N(O)CCCCCN [DF, deferoxamine]
- inhibition at 100 µM ([2]; Human immunodeficiency virus 1, 120 h, concentrations around 100 µM, control 1.2 ng p24/ml, read-out: reduction of viral replication (p24)): ≤ 50%
- p24 level in culture supernatant ([2]; concentrations around 100 µM, control 1.2 ng p24/ml): 0.6 ng p24/ml
- IC50 [1, 7]: 8.5 µM
- p24 level in culture supernatant ([3]; 3 µM, 5 days, control 19 ng p24/ml): 11 ng p24/ml
- p24 level in culture supernatant ([3]; 30 µM, 5 days, n=3, control 19 ng p24/ml): 1.9 ng p24/ml
- inhibition at 3 µM ([3]; Human immunodeficiency virus 1, 120 h, 3 µM, 5 days incubation, n=3, p<0.05, control 19 ng p24/ml, read-out: reduction in viral replication (p24)): 40%
- inhibition at 30 µM ([3]; Human immunodeficiency virus 1, 120 h, 30 µM, 5 days, n=3, control 19 ng p24/ml, read-out: reduction of p24 levels): > 90%
- cytotoxicity (cell viability, MTT) ([5]; concentrations around 100 µM): onset of cytotoxicity
- cytotoxicity (cell viability, MTT) ([6]; 100 µM): cytotoxic

Compound: Cc1c(O)c(=O)ccn1C [L1, deferiprone]
- up-regulation of p24 antigen production ([2]; 30 µM): up to two fold
- HIV-1 replication (p24) ([3]; 100 µM, 5 days): reduced to minimal levels
- p24 antigen production ([3]; lower compound concentrations (below 100 µM), 5 days): subtle increase
- cellular proliferation (3H-thymidine incorporation) [4]: decrease in proliferation
- cytotoxicity (cell viability, MTT) ([5]; concentrations studied): not cytotoxic
- cytotoxicity (cell viability, MTT) ([6]; 100 µM): not cytotoxic

The remaining lines, values ahead:

- IC50 [1, 7]: 3.7 µM
Compound: O=c1[nH]cnc2c1ncn2[C@H]1CC[C@@H](CO)O1 [ddI, dideoxyinosine]

- IC50 [1, 9]: 0.04 µM
Compound: CC(C)c1nc(CN(C)C(=O)N[C@H](C(=O)N[C@@H](Cc2ccccc2)C[C@H](O)[C@H](Cc2ccccc2)NC(=O)OCc2cncs2)C(C)C)cs1 [ritonavir]
